Laboratory results: patent US11851426B2, “Bicyclic amines as CDK2 inhibitors” (Incyte Corporation, priority 2019, dated 2023)
pIC50: −log10 of the molar value.

molecular target: CDK2/Cyclin E1 (Homo sapiens (Human), UniProt P24941); experiment: CDK2/Cyclin E1 HTRF enzyme activity assay; assay type: biochemical; conditions: 1 mM ATP; CDK2/Cyclin E1 0.25 nM; 60 minutes at room temperature
How it was run: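 HTRF read-out of 4E-BP1 (Thr37/46) peptide phosphorylation (ULight peptide 50 nM) by 0.25 nM baculovirus-made GST-CDK2/FLAG-Cyclin E1, with ATP at 50 μM or 1 mM, 60 min at room temperature, pH 7.5. Eu-anti-phospho antibody with EDTA quench; IC50 fitted by three- or four-parameter dose-response.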

pIC50, ≥ 7.70:
CCCOc1c(-c2cn[nH]c2)ncc2nc(NC3CCN(S(C)(=O)=O)CC3)nn12 [Example 105, N-(1-(Methylsulfonyl)piperidin-4-yl)-5-propoxy-6-(1H-pyrazol-4-yl)-[1,2,4]triazolo[1,5-a]pyrazin-2-amine]
CS(=O)(=O)N1CCC(Nc2nc3c(OCCC(F)(F)F)c(-c4cn[nH]c4)ncn3n2)CC1 [Example 46, N-(1-(Methylsulfonyl)piperidin-4-yl)-7-(1H-pyrazol-4-yl)-8-(3,3,3-trifluoropropoxy)-[1,2,4]triazolo[1,5-c]pyrimidin-2-amine]
C[C@@H]1CN(S(C)(=O)=O)CC[C@@H]1Nc1nc2ccc(-c3cn[nH]c3)c(OC3CC3)n2n1 [Example 74, 5-Cyclopropoxy-N-((3R,4S)-3-methyl-1-(methylsulfonyl)piperidin-4-yl)-6-(1H-pyrazol-4-yl)-[1,2,4]triazolo[1,5-a]pyridin-2-amine]
CCS(=O)(=O)N1CC[C@H](Nc2nc3c(OC(C)C)c(-c4cn[nH]c4)ncn3n2)[C@H](C)C1 [Example 54, N-((3R,4S)-1-(Ethylsulfonyl)-3-methylpiperidin-4-yl)-8-isopropoxy-7-(1H-pyrazol-4-yl)-[1,2,4]triazolo[1,5-c]pyrimidin-2-amine]
COCCN1CCN(c2c(-c3cn[nH]c3)ncn3nc(NC4CCN(S(C)(=O)=O)CC4)nc23)CC1 [Example 51, 8-(4-(2-Methoxyethyl)piperazin-1-yl)-N-(1-(methylsulfonyl)piperidin-4-yl)-7-(1H-pyrazol-4-yl)-[1,2,4]triazolo[1,5-c]pyrimidin-2-amine]
C[C@@H]1CN(S(C)(=O)=O)CC[C@@H]1Nc1nc2c(OC3CCOC3)c(-c3cn[nH]c3)ccn2n1 (stereo partly drawn) [Example 40, N-((3R,4S)-3-methyl-1-(methylsulfonyl)piperidin-4-yl)-7-(1H-pyrazol-4-yl)-8-((tetrahydrofuran-3-yl)oxy)-[1,2,4]triazolo[1,5-a]pyridin-2-amine]
CS(=O)(=O)N1CCC(Nc2nc3cnc(-c4cn[nH]c4)c(N4CC5CCC4C5)n3n2)CC1 (stereo not shown) [Example 131, 5-(2-Azabicyclo[2.2.1]heptan-2-yl)-N-(1-(methylsulfonyl)piperidin-4-yl)-6-(1H-pyrazol-4-yl)-[1,2,4]triazolo[1,5-a]pyrazin-2-amine]
CS(=O)(=O)N1CCC(Nc2nc3c(N4CCCCC4)c(-c4cn[nH]c4)ncn3n2)CC1 [Example 49, N-(1-(Methylsulfonyl)piperidin-4-yl)-8-(piperidin-1-yl)-7-(1H-pyrazol-4-yl)-[1,2,4]triazolo[1,5-c]pyrimidin-2-amine]
CS(=O)(=O)N1CCC(Nc2nc3c(-c4cccc(C(F)(F)F)c4)c(-c4cn[nH]c4)ccn3n2)CC1 [Example 26, N-(1-(methylsulfonyl)piperidin-4-yl)-7-(1H-pyrazol-4-yl)-8-(3-(trifluoromethyl)phenyl)-[1,2,4]triazolo[1,5-a]pyridin-2-amine]
CCOc1c(-c2cn[nH]c2)ccn2nc(NC3CCN(S(C)(=O)=O)CC3)nc12 [Example 2, 8-ethoxy-N-(1-(methylsulfonyl)piperidin-4-yl)-7-(1H-pyrazol-4-yl)-[1.2.4]triazolo[1,5-a]pyridin-2-amine]
CS(=O)(=O)N1CCC(Nc2nc3c(-c4ccc(C#N)c(F)c4)c(-c4cn[nH]c4)ncn3n2)CC1 [Example 36, 2-fluoro-4-(2-((1-(methylsulfonyl)piperidin-4-yl)amino)-7-(1H-pyrazol-4-yl)-[1,2,4]triazolo[1,5-c]pyrimidin-8-yl)benzonitrile]
CC(C)COc1c(-c2cn[nH]c2)ccc2nc(NC3CCN(S(C)(=O)=O)CC3)nn12 [Example 79, 5-Isobutoxy-N-(1-(methylsulfonyl)piperidin-4-yl)-6-(1H-pyrazol-4-yl)-[1,2,4]triazolo[1,5-a]pyridin-2-amine]
CC(C)Oc1c(-c2cn[nH]c2)ncn2nc(N[C@H]3CCN(S(=O)(=O)CCCN(C)C)C[C@H]3C)nc12 [Example 56, N-((3R,4S)-1-((3-(Dimethylamino)propyl)sulfonyl)-3-methylpiperidin-4-yl)-8-isopropoxy-7-(1H-pyrazol-4-yl)-[1,2,4]triazolo[1,5-c]pyrimidin-2-amine]
CC(C)Oc1c(-c2cn[nH]c2)ncn2nc(N[C@H]3CCN(S(=O)(=O)CCCCN4CC[C@@H](C(F)F)C4)C[C@H]3C)nc12 [Example 67, N-((3R,4S)-1-((4-((R)-3-(Difluoromethyl)pyrrolidin-1-yl)butyl)sulfonyl)-3-methylpiperidin-4-yl)-8-isopropoxy-7-(1H-pyrazol-4-yl)-[1,2,4]triazolo[1,5-c]pyrimidin-2-amine]
CS(=O)(=O)N1CCC(Nc2nc3ccc(-c4cn[nH]c4)c(OCC(F)(F)C(F)F)n3n2)CC1 [Example 81, N-(1-(Methylsulfonyl)piperidin-4-yl)-6-(1H-pyrazol-4-yl)-5-(2,2,3,3-tetrafluoropropoxy)-[1,2,4]triazolo[1,5-a]pyridin-2-amine]
CCOc1c(-c2cn[nH]c2)ccn2nc(N[C@H]3CCN(S(=O)(=O)C4CC4)C[C@H]3C)nc12 [Example 13, N-((3R,4S)-1-(cyclopropylsulfonyl)-3-methylpiperidin-4-yl)-8-ethoxy-7-(1H-pyrazol-4-yl)-[1,2,4]triazolo[1,5-a]pyridin-2-amine]
CCOc1c(-c2cn[nH]c2)ncn2nc(NC3CCN(S(C)(=O)=O)CC3)nc12 [Example 32, 8-Ethoxy-N-(1-(methylsulfonyl)piperidin-4-yl)-7-(1H-pyrazol-4-yl)-[1,2,4]triazolo[1,5-c]pyrimidin-2-amine]
C[C@H]1CCCN1c1c(-c2cn[nH]c2)ncc2nc(NC3CCN(S(C)(=O)=O)CC3)nn12 [Example 133, (S)-5-(2-Methylpyrrolidin-1-yl)-N-(1-(methylsulfonyl)piperidin-4-yl)-6-(1H-pyrazol-4-yl)-[1,2,4]triazolo[1,5-a]pyrazin-2-amine]
CC(C)Oc1c(-c2cn[nH]c2)ncc2nc(NC3CCN(S(C)(=O)=O)CC3)nn12 [Example 141, 5-Isopropoxy-N-(1-(methylsulfonyl)piperidin-4-yl)-6-(1H-pyrazol-4-yl)-[1,2,4]triazolo[1,5-a]pyrazin-2-amine]
